The structures appear in SMILES notation.

The values below come from patent US7915237B2, “Production of pure stereoisomers of tricyclo[5.2.1.02.6]-dec-9-yl-xanthogenate and medicaments therefrom” (Lumavita AG, priority 2001, dated 2011).

Assay [1] relates to Herpes simplex virus 1. Nature of the assay: Inhibition of Herpes proliferation by measuring viral proliferation (plaque assay of supernatants). The assay is classed as cell-based, Herpes simplex virus 1 in monkey kidney cells (Rita strain). The protocol:
The inhibition of the proliferation of Herpes by exo/exotricyclo[5.2.1.0^2.6]dec-9-yl-xanthogenate was determined by measuring viral proliferation. For this purpose, monkey kidneys cells (Rita strain) were seeded on Linbro plates. After 24 hours, 100 plaque-forming units of Herpes simplex virus 1 were added to each culture. After allowing for adsorption for one hour, fresh culture medium adjusted to pH 6.8 was added. Four cultures each were treated either with the pure exo/exo isomer or a mixture of isomers containing 83% of the exo/exo isomer using the following concentrations: 0, 5, 10 or 15 μg/ml. The virus concentrations in the supernatants of the cultures were determined after four days by means of plaque assays. The curves were used to determine the concentration at which viral proliferation was inhibited by 50% (IC50). An IC50 of 0.6 μg/ml was found for the exo/exo isomer. […] This means that the pure exo/exo isomer effected a 50% reduction of viral proliferation at a more than 10-fold lower concentration as compared to the mixture of isomers.

In assay [2] the test system is Herpes simplex virus 1. Nature of the assay: Inhibition of Herpes proliferation by measuring the cytopathogenic effect. The assay is classed as cell-based, Herpes simplex virus 1 in monkey kidney cells (Rita strain). To be noted: 50 PFU HSV-1, pH 6.8, microscopy after 6 days. The procedure:
The inhibition of the proliferation of Herpes by exo/exo-tricyclo[5.2.1.0^2.6]dec-9-yl-xanthogenate was determined by measuring the cytopathogenic effect. For this purpose, monkey kidneys cells (Rita strain) were seeded on Linbro plates. After 24 hours, 50 plaque-forming units of Herpes simplex virus 1 were added to each culture. After allowing for adsorption for one hour, fresh culture medium adjusted to pH 6.8 was added. Four cultures each were treated either with the pure exo/exo isomer or a mixture of isomers containing 83% of the exo/exo isomer using the following concentrations: 0, 5, 10, 15 or 20 μg/ml. The cultures were analyzed by microscopy after 6 days. Untreated cultures were completely lysed as a result of virus proliferation (cytopathogenic effect).
For orientation: Damage to the host cells serves as the signal in cytopathic effect assays.

For the molecule `S=C(S)OC1CC2CC1C1CCCC21` (single isomer, unassigned) [exo/exo isomer, exo/exo-tricyclo[5.2.1.0^2.6]dec-9-yl-xanthogenate], the “concentration at which viral proliferation was inhibited by 50% (IC50)” value in assay [1] (100 PFU HSV-1, pH 6.8, virus in supernatant after four days, from dose-response curve) was 0.6 µg/mL. Moreover, the “fold lower concentration for 50% reduction of viral proliferation as compared to the mixture of isomers” value in assay [1] (IC50 ratio versus mixture containing 83% exo/exo isomer) is reported as “more than 10 fold”. Besides, the “fold stronger antiviral effect than the mixture of isomers” value in assay [1] (summary statement, versus mixture of 83% exo/exo and 17% other isomers) is 4-10 fold. In addition, the “cytopathogenic effect in treated cultures” value in assay [2] (5, 10, 15 or 20 μg/ml) is recorded as “no evidence of a cytopathogenic effect”. The “concentration at which proliferation of the virus was completely suppressed (no cytopathogenic effect)” value in assay [2] (tested 5-20 μg/ml) was not above 5 µg/mL.
